The values below are quoted from earlier work in patent US20250320459A1, “FUNCTIONALIZED MOLECULAR LAYERS AND SCAFFOLDS, AND METHODS OF PREPARATION AND USE THEREOF” (PURDUE RESEARCH FOUNDATION, priority 2022, published 2025).

The data set has as its target WGA.

Structures are written as SMILES.

In the case of `CC(=O)N[C@H]1C(O)O[C@H](CO)[C@@H](O)[C@@H]1O` (stereo partly drawn) [GlcNAc, N-acetyl-D-glucosamine], the “KD, monovalent interactions between WGA and GlcNAc” value (monovalent) is reported as “micromolar to millimolar range”. Besides, the “KD, multivalent interactions between WGA and GlcNAc” value (multivalent) was “nanomolar range”.
